Test results taken from patent publication US6841367B2, “Human receptor tyrosine kinase, KDR” (Merck & Co., Inc., priority 1997, dated 2005).

Test system: KDR
Assay: Tyrosine autophosphorylation of KDRcyt mutants (antiphosphotyrosine Western blot)
Format: biochemical, human
Settings: 1 mM ATP, 37° C., 10 min; Western blot with antiphosphotyrosine antibody PY20 (FIG. 4A)
Experimental: Purified KDRcytE848 and KDRcytV848 were incubated with at concentrations of 12 ng or 120 ng, respectively, or without 1 mM ATP at 37° C. for 10 min. The reaction was stopped by the addition of an equal volume of 2× SDS-PAGE sample buffer and boiled for 5 min. Reaction products were separated by 7.5%/SDS-PAGE and analyzed by Western blot probed with the antiphosphotyrosine antibody PY20 (Transduction Laboratories; FIG. 4A), or an anti-KDR antibody (Santa Cruz Biotechnology; FIG. 4B) visualized using the ECL detection kit and quantified by scanning with a densitometer (Molecular Dynamics).

GST-KDRcytV848: GST fusion of the human KDR cytoplasmic tyrosine kinase domain with Val at position 848 (SEQ ID NO:2)
autophosphorylation: resulted in autophosphorylation
